Experimental data taken from PMC9823356, “Inhibition of Cancer Cell Proliferation and Bacterial Growth by Silver(I) Complexes Bearing a CH3-Substituted Thiadiazole-Based Thioamide” (Molecules, 2023).

What was measured:
[1] = Reduction of hydrogen peroxide; details: compound 0.1 mM, 20 min, phosphate buffer pH 7.4
Procedure: In vitro antioxidant activity studies for 1–4 and their free ligands were performed in order to determine their ability to scavenge DPPH, and ABTS free radicals and to reduce H2O2 and was compared with the antioxidant capacity of reference compounds (NDGA, BHT, trolox and ascorbic acid).
The absorbance was measured at 230 nm after 20 min. The antioxidant activity of the compounds was expressed as percent reduction of H2O2 (%H2O2). Ascorbic acid (or vitamin C) was used as an appropriate standard.

[2] = test system: Hup-T3 pancreatic adenocarcinoma cells; test: MTT cytostatic/cytotoxic assay; type: cell-based, human; details: Hup-T3, 48 h treatment
Procedure: (§1) The cell lines were obtained from the American Type of Culture collection (ATCC), except HuP-T3 which was kindly donated from University of Crete, School of Medicine, Greece, and were grown in different culture medium according to the instructions.
(§2) For the determination of the cell viability, it was employed the MTT assay. Cells were plated in 96-well plate at a density of 1 × 10^4 cells/mL per well and maintained for 72 h at 37 °C in a 5% CO2 incubator and grown as monolayers. […] The viability of cultured cells was estimated by a (3-(4,5-imethylthiazol-2-yl)-2,5-diphenyltetrazolium bromide (MTT) metabolic assay as previously described.
(§3) In brief, MTT (Sigma, St Louis, Missouri, USA) was dissolved in PBS in a concentration of 5 mg/mL, filter sterilized, and stored at 4 °C. Then, 50 μL of stock solution was added to each culture and incubated for 3 h at 37 °C. Formazan crystals were solubilized by DMSO (100 μL). Absorbance of the converted dye was measured at a wavelength of 540 nm on ELISA reader (VersaMax Microplate Reader Orleans, USA). […] Using seven absorbance measurements [time 24 h (Ct24), control growth 72 h (Ct72), and test growth in the presence of drug at five concentration levels (Tt72x)], the percentage of growth was calculated at each level of the drug concentrations. The percentage growth inhibition was calculated according to National Cancer Institute (NCI) as: {[(Tt72x) − (Ct24)]/[(Ct72) − (Ct24)]} × 100 for concentrations for which Tt72x>Ct24 and {(Tt72x) − (Ct24)]/(Ct24)} × 100 for concentrations for which Tt72x<Ct24. […] All experiments were carried out in triplicate. A significant difference was presumed to exist when p ≤ 0.05 (two tailed paired t test).

[3] = test system: PC3 prostate adenocarcinoma cells; test: MTT cytostatic/cytotoxic assay; type: cell-based, human; details: PC3, 48 h treatment
Procedure: as §1, §2, §3

calf-thymus (CT) DNA = test: DNA viscosity measurements; type: binding
Procedure: All measurements were performed at room temperature. The obtained data are presented as (η/η0)^1/3 versus r where η is the viscosity of DNA in the presence of the studied compound, η0 is the viscosity of DNA alone in buffer solution and r = [complex]/[DNA]. DNA-length (L/L0), according to the equation L/L0 = (η/η0)^1/3. […] In the particular case of intercalation, an increase in the separation distance of the DNA-base pairs can be induced in order to host the inserting compound resulting in an increase of the relative DNA-viscosity. On the other hand, when a compound binds to DNA-grooves via non-classic intercalation (i.e., electrostatic interaction or external groove-binding) the DNA-viscosity may show a slight decrease or remain unchanged, because of a bend of DNA double helix which leads to shortening of DNA length.

[4] = test system: DMS114 small cell lung cancer cells; test: MTT cytostatic/cytotoxic assay; type: cell-based, human; details: DMS114, 48 h treatment
Procedure: as §1, §2
as §3, with “Using seven absorbance measurements [time 24 h (Ct24), control growth 72 h (Ct72), and test growth in the presence of drug at five concentration levels (Tt72x)], the percentage of growth was calculated at each level of the drug concentrations.” left out

[5] = test system: SKOV-3 ovarian cancer cells; test: MTT cytostatic/cytotoxic assay; type: cell-based, human; details: SKOV-3, 48 h treatment
Procedure: as §1, §2
as §3, with “Using seven absorbance measurements [time 24 h (Ct24), control growth 72 h (Ct72), and test growth in the presence of drug at five concentration levels (Tt72x)], the percentage of growth was calculated at each level of the drug concentrations.” left out

[6] = biological target: T1, BSA (bovine serum albumin) (Bos taurus, UniProt P02769); test: Serum albumin tryptophan fluorescence quenching; type: binding
T1 construct: purchased
T1 sequence (P02769 25-607): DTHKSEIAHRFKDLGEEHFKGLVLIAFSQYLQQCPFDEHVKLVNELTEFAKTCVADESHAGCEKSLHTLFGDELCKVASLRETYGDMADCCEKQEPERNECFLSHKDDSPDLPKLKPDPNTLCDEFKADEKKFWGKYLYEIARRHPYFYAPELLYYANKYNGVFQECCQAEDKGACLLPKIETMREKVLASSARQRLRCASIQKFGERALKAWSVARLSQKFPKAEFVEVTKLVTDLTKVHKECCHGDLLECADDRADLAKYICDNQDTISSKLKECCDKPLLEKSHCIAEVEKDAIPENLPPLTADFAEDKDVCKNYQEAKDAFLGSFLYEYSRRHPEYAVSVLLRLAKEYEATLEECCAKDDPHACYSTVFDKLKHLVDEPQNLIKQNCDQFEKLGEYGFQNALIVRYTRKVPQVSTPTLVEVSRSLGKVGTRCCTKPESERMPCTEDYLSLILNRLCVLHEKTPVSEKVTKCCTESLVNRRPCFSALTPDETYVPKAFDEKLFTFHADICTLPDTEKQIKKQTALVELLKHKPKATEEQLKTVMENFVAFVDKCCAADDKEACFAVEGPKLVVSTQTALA
Procedure: (§4) The serum albumin (SA) binding study was performed by tryptophan fluorescence quenching experiments using BSA (3 μM) or HSA (3 μM) in buffer (containing 1 mM trisodium citrate and 150 mM NaCl at pH 7.0).
(§5) The Stern-Volmer and Scatchard graphs are used in order to study the interaction of a quencher with serum albumins. According to Stern-Volmer quenching equation (Equation (2)), where Io = the initial tryptophan fluorescence intensity of SA, I = the tryptophan fluorescence intensity of SA after the addition of the quencher, kq = the quenching constant, KSV = the Stern-Volmer constant, τo = the average lifetime of SA without the quencher, [Q] = the concentration of the quencher. KSV (M^–1) can be obtained by the slope of the diagram Io/I versus [Q], and subsequently the quenching constant (kq, M^–1s^–1) is calculated from Equation (3) with τ0 = 10^–8 s as fluorescence lifetime of tryptophan in SA.
(§6) From the Scatchard equation (5) ΔΙ/Ιο/Q=nK−kΔΙ/Ιο where, n is the number of binding sites per albumin and K is the SA-binding constant, K (in M^–1) is calculated from the slope in plots ΔΙ/Ιο/Q versus ΔΙ/Ιο and n is given by the ratio of y intercept to the slope.

[7] = biological target: T2, HSA (human serum albumin) (Homo sapiens, UniProt P02768); test: Serum albumin tryptophan fluorescence quenching; type: binding
T2 construct: purchased
T2 sequence (P02768 25-609): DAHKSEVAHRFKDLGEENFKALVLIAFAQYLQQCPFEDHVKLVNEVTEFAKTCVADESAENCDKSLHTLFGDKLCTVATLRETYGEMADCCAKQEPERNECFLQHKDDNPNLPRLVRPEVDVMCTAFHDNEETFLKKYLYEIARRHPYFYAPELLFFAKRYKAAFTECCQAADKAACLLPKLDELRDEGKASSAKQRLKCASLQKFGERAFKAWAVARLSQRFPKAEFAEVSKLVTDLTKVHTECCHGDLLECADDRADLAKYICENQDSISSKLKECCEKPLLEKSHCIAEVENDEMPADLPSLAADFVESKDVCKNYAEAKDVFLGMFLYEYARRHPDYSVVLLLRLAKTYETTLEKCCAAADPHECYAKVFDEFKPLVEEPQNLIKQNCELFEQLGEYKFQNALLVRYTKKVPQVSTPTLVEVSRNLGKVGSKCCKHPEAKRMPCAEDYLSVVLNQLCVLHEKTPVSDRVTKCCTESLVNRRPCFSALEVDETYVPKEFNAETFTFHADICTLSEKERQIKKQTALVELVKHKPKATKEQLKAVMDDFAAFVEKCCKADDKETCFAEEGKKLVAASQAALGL
Procedure: as §4, §5, §6

[8] = cytocidal/cytotoxic, read-out: IC50 (the source's name)

Substance: [Ag(mtdztH)(dppe)(NO3)]n [Compound 4]
- H2O2 reducing ability (%H2O2) [1]: 35.17±1.96%
- IC50 ([2]; cytocidal/cytotoxic): 3000 ± 40 nM
- GI50 ([2]; growth inhibition): 400 ± 20 nM
- TGI ([2]; total growth inhibition): 0.9±0.04 μΜ
- LC50 [3, 8]: 3600 ± 50 nM
- GI50 ([3]; growth inhibition): 600 ± 30 nM
- TGI ([3]; total growth inhibition): 1.6±0.03 μΜ
- relative DNA viscosity change (calf-thymus (CT) DNA; higher concentrations, r > 0.15): moderate increase
- relative DNA viscosity change (calf-thymus (CT) DNA; low concentrations, up to r = 0.15): remained almost unchanged
- LC50 [4, 8]: 3100 ± 50 nM
- GI50 ([4]; growth inhibition): 500 ± 40 nM
- TGI ([4]; total growth inhibition): 1.0±0.05 μΜ
- LC50 [5, 8]: 2300 ± 50 nM
- GI50 ([5]; growth inhibition): 1000 ± 20 nM
- TGI ([5]; total growth inhibition): 2.0±0.03 μΜ
- decrease in BSA fluorescence ([6]; λex 295 nm, λem 350 nm): 44.5%
- emission-quenching constant kq ([6]; τ0 = 10^–8 s): 7.15 (±0.40) × 10^12 M^−1s^−1
- binding constant K ([7]; Scatchard equation): 7.21 (±0.53) × 10^4 M^−1
- HSA emission quenching ([7]; λex 295 nm, λem 338 nm): 23%
- emission-quenching constant kq ([7]; τ0 = 10^–8 s): 5.11 (±0.37) × 10^11 M^−1s^−1
